Compound `COc1cc(OCC(=O)[O-])c2c3c(n(Cc4ccccc4)c2c1)CCCC3C(N)=O.[Na+]` (stereo not drawn) has a melting point of 251 to 254 °C.
`Cc1ccc(OCC(=O)O)c2c3c(C(N)=O)cccc3n(Cc3ccccc3)c12` [Example 50, [9-benzyl-5-carbamoyl-1-methylcarbazol-4-yl]oxyacetic acid] showed a melting point of 253 to 254 °C.
For `NC(=O)c1cccc2c1c1c(OCC(=O)O)ccc(Cl)c1n2Cc1ccccc1` [Example 54, [9-benzyl-5-carbamoyl-1-chlorocarbazol-4-yl]oxyacetic acid], the melting point was 240 to 242 °C.
For `COc1cc(OC)c2c3c(n(Cc4ccccc4)c2c1)CCCC3C(N)=O` (stereo not drawn) [Example 2, 9-benzyl-5,7-dimethoxy-1,2,3,4-tetrahydrocarbazole-4-carboxamide], the melting point was 190 to 192 °C.
Work on `COc1cc(OC(C)C(=O)O)c2c3c(C(N)=O)cccc3n(Cc3ccccc3)c2c1` (stereo not drawn) [Example 5, methyl [9-benzyl-4-carbamoyl-7-methoxycarbazol-5-yl]oxyacetic acid] yielded a melting point of 170 to 172 °C.
With `COc1cc(OC)c2c3c(n(Cc4ccccc4)c2c1)CCCC3C(=O)NN` (stereo not drawn) [Example 1, 9-benzyl-5,7-dimethoxy-1,2,3,4-tetrahydrocarbazole-4-carboxylic acid hydrazide] the melting point was 189 to 190 °C.
